Experimental data reported in ChEMBL document CHEMBL1201862, “PubChem BioAssay data set” (2004).
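All cell lines were grown in 96-well plates and treated with compound for 48 hours. Here, GI50 denotes the concentration required for 50% inhibition of growth.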 Active and inactive are the calls of the source. No stated cut-off is given here; in the data, active = GI50 up to about 1.1 µM and inactive = higher.

Experiments:
Assay in all cases: NCI-60 cell line screen, 48 h
KM-20L2 = tested on: KM-20L2
DMS-273 = tested on: DMS-273
LXFL 529 = tested on: LXFL 529
M19-MEL = tested on: M19-MEL
HOP-18 = tested on: HOP-18
RXF 631 = tested on: RXF 631
XF498 = tested on: XF498
DLD-1 = tested on: DLD-1
DMS-114 = tested on: DMS-114

Structure (SMILES)	GI50 (KM-20L2)	GI50 (DMS-273)	GI50 (LXFL 529)	GI50 (M19-MEL)	GI50 (HOP-18)	GI50 (RXF 631)	GI50 (XF498)	GI50 (DLD-1)	GI50 (DMS-114)
CC(=O)OC1C(=O)C(O)C(C)OC1O[C@@H]1C[C@@]2(C)[C@@H]3CC=C4[C@@H](C[C@H](O)C(=O)C4(C)C)[C@]3(C)C(=O)C[C@]2(C)[C@H]1[C@@](C)(O)C(=O)/C=C/C(C)(C)O (some centres not stated)	1.39 µM (inactive)	0.658 µM (active)	0.881 µM (active)	2.44 µM (inactive)	1.22 µM (inactive)	2.39 µM (inactive)	0.297 µM (active)	1.3 µM (inactive)	
CN(/N=C/c1ccnc2ccccc12)c1c([N+](=O)[O-])cc([N+](=O)[O-])cc1[N+](=O)[O-]	> 100 µM (inactive)	> 100 µM (inactive)	48.4 µM (inactive)	> 100 µM (inactive)	> 100 µM (inactive)		70.1 µM (inactive)	37.4 µM (inactive)	37.9 µM (inactive)
C[C@]12CCc3nonc3C1CC[C@@H]1C2CC[C@@]2(C)C1CC[C@@H]2O (some centres not stated)	> 100 µM (inactive)	> 100 µM (inactive)	> 100 µM (inactive)	> 100 µM (inactive)	> 100 µM (inactive)	> 100 µM (inactive)	> 100 µM (inactive)	> 100 µM (inactive)	> 100 µM (inactive)
O=C(NCc1ccc2ccc3cccnc3c2n1)c1ccc[n+](Cc2ccccc2)c1	> 100 µM (inactive)	> 100 µM (inactive)	67.6 µM (inactive)	60.8 µM (inactive)	> 100 µM (inactive)	> 100 µM (inactive)	> 100 µM (inactive)	> 100 µM (inactive)	36.8 µM (inactive)
CN1C(=O)CSC1=S [3-METHYL-RHODANINE]	> 100 µM (inactive)	> 100 µM (inactive)	> 100 µM (inactive)	> 100 µM (inactive)	> 100 µM (inactive)			> 100 µM (inactive)	> 100 µM (inactive)
CC(=O)O[C@H]1CC[C@@]2(C)C(=CC[C@@H]3C2CC[C@]2(C)Nc4oncc4CC32)C1 (some centres not stated)	90.6 µM (inactive)	26.9 µM (inactive)	13 µM (inactive)	28.5 µM (inactive)		33.5 µM (inactive)	31.5 µM (inactive)	46 µM (inactive)	
COc1cccc(C2=NC(C(C)C)CO2)c1OC (configuration not stated)	> 100 µM (inactive)	> 100 µM (inactive)	> 100 µM (inactive)	> 100 µM (inactive)			> 100 µM (inactive)	> 100 µM (inactive)	> 100 µM (inactive)
COC(=O)[C@H]1C2CC[C@@H]3C45C[C@@H](c6ccoc6)O[C@@H]4O[C@@H](O2)C31CCC5C (some centres not stated)	> 100 µM (inactive)	> 100 µM (inactive)	57.7 µM (inactive)		> 100 µM (inactive)		> 100 µM (inactive)	> 100 µM (inactive)	
CN/N=C(/CC(=O)c1sc(NNC(C)=O)nc1C)C(=O)Nc1ccc(OC)cc1OC	> 100 µM (inactive)	> 100 µM (inactive)	> 100 µM (inactive)	> 100 µM (inactive)			> 100 µM (inactive)	> 100 µM (inactive)	> 100 µM (inactive)
FC(F)(F)c1nc(Br)[nH]c1C(F)(F)F	64.6 µM (inactive)	> 100 µM (inactive)	92.3 µM (inactive)	> 100 µM (inactive)	28.8 µM (inactive)	61.4 µM (inactive)	> 100 µM (inactive)	> 100 µM (inactive)	40.2 µM (inactive)
CCOC(=O)CC(NCc1ccc(/N=C/c2nc3ccc(C(F)(F)F)cc3nc2-c2ccccc2)cc1)C(=O)OCC (configuration not stated)	> 54.7 µM (inactive)	> 64.1 µM (inactive)	> 100 µM (inactive)	> 100 µM (inactive)	24.7 µM (inactive)		14.2 µM (inactive)	> 100 µM (inactive)	> 68.5 µM (inactive)
COc1cc([C@@H]2OC(=O)C3C2C(=O)O[C@H]3c2ccc(O)c(OC)c2)ccc1O (some centres not stated)	> 100 µM (inactive)	> 100 µM (inactive)	> 100 µM (inactive)	> 100 µM (inactive)	> 100 µM (inactive)	> 100 µM (inactive)		> 100 µM (inactive)	> 100 µM (inactive)
C/C(COc1ccccc1)=N\NC(N)=S	> 100 µM (inactive)	> 100 µM (inactive)	44.5 µM (inactive)	> 100 µM (inactive)			53.5 µM (inactive)	> 100 µM (inactive)	62.7 µM (inactive)
NC(=O)c1ccccc1NC(=O)C(=O)Cc1nc2ccccc2nc1O	> 100 µM (inactive)	> 100 µM (inactive)	> 100 µM (inactive)	> 100 µM (inactive)		> 100 µM (inactive)		> 100 µM (inactive)	94.6 µM (inactive)
Cc1ccc(NC(=O)CCC(=O)C2CC(=O)CCC2=O)cc1C (configuration not stated)	> 100 µM (inactive)	> 100 µM (inactive)	> 100 µM (inactive)	> 100 µM (inactive)	> 100 µM (inactive)	> 100 µM (inactive)		> 100 µM (inactive)	> 100 µM (inactive)
O=C(N/N=C(/CCN1CCCC1)CC(c1ccccc1)c1c(O)c2ccccc2oc1=O)c1ccncc1 (configuration not stated)	> 100 µM (inactive)		> 100 µM (inactive)	95.1 µM (inactive)	> 100 µM (inactive)			> 100 µM (inactive)	
CCCCCN(CCCCC)C(=O)[C@H](CCC(=O)OCc1ccccc1)NC(=O)c1cc2ccccc2[nH]1	> 100 µM (inactive)	> 100 µM (inactive)	> 100 µM (inactive)		> 100 µM (inactive)	> 100 µM (inactive)		> 100 µM (inactive)	> 100 µM (inactive)
COC(=O)/C=C(C)/C=C/c1cc(C(C)=O)c(C)o1	> 100 µM (inactive)		93.1 µM (inactive)		46.9 µM (inactive)		> 100 µM (inactive)	43.8 µM (inactive)	93.3 µM (inactive)
CCOC(=O)C1=C(O)C(=O)c2ccsc2C1=O	> 100 µM (inactive)	> 100 µM (inactive)		20.6 µM (inactive)	> 100 µM (inactive)			> 100 µM (inactive)	> 100 µM (inactive)
COC(=O)C(C(=O)C(=O)Nc1cccc([N+](=O)[O-])c1)c1nc2ccc([N+](=O)[O-])cc2nc1O (configuration not stated)	> 100 µM (inactive)	> 100 µM (inactive)	> 100 µM (inactive)	> 100 µM (inactive)	> 100 µM (inactive)	> 100 µM (inactive)	> 100 µM (inactive)	> 100 µM (inactive)	> 100 µM (inactive)
COc1ccc2nc3ccccc3c(NCCCCN(C)CCCl)c2c1	0.0277 µM (active)	0.0218 µM (active)	< 0.013 µM (active)			< 0.0185 µM (active)	0.0369 µM (active)	0.0471 µM (active)	
C=CCCCCCCCC(O)C1C[C@H](O)C(CCCCC)O1 (some centres not stated)		18.1 µM (inactive)	15.5 µM (inactive)	19.1 µM (inactive)	17.9 µM (inactive)			17.3 µM (inactive)	17.3 µM (inactive)
COc1cc2c(c(OC)c1OC)-c1ccc(SC)c(=O)cc1[C@@H](NC(=O)C(F)(F)F)CC2	< 0.01 µM (active)	< 0.01 µM (active)	< 0.01 µM (active)		26.5 µM (inactive)		0.0585 µM (active)	< 0.01 µM (active)	
Cn1cc2ccccc2c1-c1nc(F)nc(Oc2ccc3c(c2)CC[C@@H]2C3CC[C@@]3(C)C2C[C@H](O)[C@@H]3O)n1 (some centres not stated)	15.8 µM (inactive)	10.3 µM (inactive)	13.8 µM (inactive)	16.9 µM (inactive)	22.3 µM (inactive)		22.4 µM (inactive)	10.3 µM (inactive)	12.3 µM (inactive)
O=C1c2ccc3c4ccccc4n(Cc4ccccc4)c3c2C(=O)N1c1ccccc1	20.9 µM (inactive)	12.4 µM (inactive)	14.3 µM (inactive)	17.3 µM (inactive)	12.1 µM (inactive)	14.5 µM (inactive)		17 µM (inactive)	17.9 µM (inactive)
CC(C)C(NCc1c2ccccc2[n+]([O-])c2ccccc12)C(=O)O (configuration not stated)	43.8 µM (inactive)	38.9 µM (inactive)	35.1 µM (inactive)		14.5 µM (inactive)			36.4 µM (inactive)	29.6 µM (inactive)
COC(=O)C(=O)C(C(=O)C(=O)Nc1cccc(C(C)=O)c1)c1nc2ccc([N+](=O)[O-])cc2nc1O (configuration not stated)	> 100 µM (inactive)	> 100 µM (inactive)	> 100 µM (inactive)		> 100 µM (inactive)	> 100 µM (inactive)	> 100 µM (inactive)	> 100 µM (inactive)	> 100 µM (inactive)
COc1ccccc1OCc1nnc(SCC(=O)O)n1-c1ccccc1	> 100 µM (inactive)	> 100 µM (inactive)	> 100 µM (inactive)				> 100 µM (inactive)	> 100 µM (inactive)	> 100 µM (inactive)
